The conditions of series [1]: cited from earlier work.
Series [2] can be described thus: Part 2 relative bioavailability and food effect, plasma PK. The class given is in vivo, human. The following applies: for Tlag / AUC % extrap / Lambda-z / half-life / Tmax / AUC(0-inf) / AUC(0-t) / Cmax / AUC (0-24) / AUC (0-last) / T1/2 / median Tmax: plasma; for peak (Cmax) and total exposure (AUC), liquid formulation vs tablet: both in the fed state, GMR comparison; for food effect on exposure, fed vs fasted: oral liquid formulation. On the procedure:
Subjects underwent preliminary screening procedures to determine their eligibility for Part 2 of the study at the screening visit (Day −28 to Day −2 of Part 2). Subjects who took part in Part 1 of the study were permitted to take part in Part 2.
Three different regimens (G, H, and I), were used over the three periods. In Regimen G, belumosudil was administered in Tablet form (reference); and in Regimens H and I, belumosudil was administered in the form of Oral Liquid Formulation.
In Period 1, Day 1: subjects were randomized prior to administration of the first dose of IMP to 1 of 6 treatment sequences (GHI, HIG, IGH, IHG, GIH and HGI) with 3 subjects assigned to each treatment sequence. On Day 1 of each study period (periods 1, 2 and 3), subjects received the regimens in Table 36:
Regimen H was administered to subjects as a flavorless low sucralose liquid formulation in a fasted state, and Regimens G and I were administered to subjects in a fed state. Regimen G was administered with a total of 240 mL of water. For Regimens H and I, immediately after IMP administration, subjects consumed water to a total volume of 240 mL (including the dosing volume).
Subjects received a single dose of IMP in the morning of Day 1 following an overnight fast of a minimum of 10 h (Regimen H, fasted state) or following a standard breakfast (Regimens G and I, fed state). Blood samples were collected at regular intervals for PK analysis. Following administration of Regimen H, subjects completed a written taste/palatability questionnaire individually and privately.
Subjects were resident in the clinical unit for 10 consecutive nights that covered all 3 treatment periods. All subjects remained on site until 72 h post-final dose for safety and PK assessments. There was a minimum washout of 3 days between each IMP administration. To ensure the ongoing wellbeing of the subjects, a follow-up phone call took place 3 to 7 days post-final dose. If a subject reported any AEs after discharge which represented a cause for concern, they were required to attend the clinical unit for a follow-up assessment. This would have been an unscheduled visit.

Series [3] in a line: particle size distribution, Sympatec Helos wet dispersion. It counts as physicochemical. The following applies: 40 mg/mL in water, R3 and R5 lens. On the procedure:
Samples were assessed using the Sympatec Helos Particle Size Analyzer using the generic method for wet dispersions as outlined below: • R5 Lens and R3 Lens • Sample added until 10-15% Copt achieved • Method run producing 3 replicates (sample stirred and sonicated throughout measurement run)
Samples were assessed using the Sympatec Helos Particle Size Analyzer, with sample added until 10-15% Copt was achieved. Two different lens assemblies were used giving the following ranges for particle size assessment, R3 Lens (0.5-175 μm) and the R5 Lens (4.8-875 μm). Three replicates were performed as part of the measurement run, with the sample stirred and sonicated as part of the method.

Where [4] appears, read: Regimen G: 200 mg Tablet, Fed, single oral dose, healthy male volunteers, median (range).
[5] abbreviates: Regimen G: 200 mg Tablet, Fed, single oral dose, geometric mean (CV%).
Where [6] appears, read: Regimen H: 200 mg Liquid Formulation, Fasted, single oral dose, healthy male volunteers, median (range).
[7] abbreviates: Regimen H: 200 mg Liquid Formulation, Fasted, single oral dose, geometric mean (CV%).
The mark [8] stands for this setting: Regimen I: 200 mg Liquid Formulation, Fed, single oral dose, healthy male volunteers, median (range).
Where [9] appears, read: Regimen I: 200 mg Liquid Formulation, Fed, single oral dose, geometric mean (CV%).
[10] abbreviates: Regimen G: 200 mg Tablet, Fed, single oral dose, geometric mean (CV%), individual values where n <= 2.
The mark [11] stands for this setting: Regimen H: 200 mg Liquid Formulation, Fasted, single oral dose, geometric mean (CV%), individual values where n <= 2.
[12] abbreviates: Regimen I: 200 mg Liquid Formulation, Fed, single oral dose, geometric mean (CV%), individual values where n <= 2.

Several values for one entry are separate records, joined by “and”; a condition that tells them apart may be missing. Identical values can stand only once. Like-named read-outs stand apart in the source and are kept apart here.

Turning to `O=C([O-])c1ccccc1.[Na+]` [Sodium Benzoate], the ADI in series [1] (JECFA (1996)) is on record as 2-5. The JECFA (1996) has set an ADI of up to 5 mg/kg body- mg/kg body-weight.

Take `O=C(O)COc1cccc(-c2nc(Nc3ccc4[nH]ncc4c3)c3ccccc3n2)c1` [KD025m2, 2-(3-(4-(1H-indazol-5-ylamino)quinazolin-2-yl)phenoxy) acetic acid]: the Tlag in series [2] (setting [4]) is recorded as 1.00 h; in series [2] (setting [6]) it was 0.00 h; in series [2] (setting [8]), 0.00 h. Moreover, the AUC % extrap in series [2] (setting [5]) was 5.607 (49.8%) [n = 8]; in series [2] (setting [7]), 4.453 (60.7%) [n = 10]; in series [2] (setting [9]) it was 5.388 (43.1%) [n = 10]. Besides, the Lambda-z is 0.281 (43.1%) [n = 8] 1/h in series [2] (setting [5]), 0.277 (87.4%) [n = 10] 1/h in series [2] (setting [7]) and 0.273 (56.5%) [n = 10] 1/h in series [2] (setting [9]). Further, in series [2], the “peak (Cmax) and total exposure (AUC), liquid formulation vs tablet” value is on record as “similar”. Besides, the half-life in series [2] (male, human, oral, 200 mg, tablet reference 200 mg, fed, read-out: geometric mean T1/2 (converted)) is 2.47 h; in series [2] (male, human, po, 200 mg, Regimen G: 200 mg Tablet, Fed, single oral dose, geometric mean (CV%), individual values where n <= 2, read-out: T1/2 (converted)), 2.47 h; in series [2] (male, human, po, 200 mg, Regimen H: 200 mg Liquid Formulation, Fasted, single oral dose, geometric mean (CV%), individual values where n <= 2, read-out: T1/2 (converted)) it was 2.51 h; in series [2] (male, human, po, 200 mg, Regimen I: 200 mg Liquid Formulation, Fed, single oral dose, geometric mean (CV%), individual values where n <= 2, read-out: T1/2 (converted)), 2.54 h. For the same compound, the Tmax worked out at 3 h in series [2] (male, human, po, 200 mg, Regimen G: 200 mg Tablet, Fed, single oral dose, healthy male volunteers, median (range), read-out: Tmax); 1.5 h in series [2] (male, human, po, 200 mg, Regimen H: 200 mg Liquid Formulation, Fasted, single oral dose, healthy male volunteers, median (range), read-out: Tmax); 2 h in series [2] (male, human, po, 200 mg, Regimen I: 200 mg Liquid Formulation, Fed, single oral dose, healthy male volunteers, median (range), read-out: Tmax); 2 h in series [2] (male, human, po, 200 mg, single oral 200 mg as liquid formulation (fed), read-out: median Tmax); 3 h in series [2] (male, human, po, 200 mg, single oral 200 mg as tablet reference, fed, read-out: median Tmax). Further, the AUC(0-inf) in series [2] (male, human, po, 200 mg, Regimen G: 200 mg Tablet, Fed, single oral dose, geometric mean (CV%)) was found to be 1180 ng·h/mL; in series [2] (male, human, po, 200 mg, Regimen H: 200 mg Liquid Formulation, Fasted, single oral dose, geometric mean (CV%)), 1030 ng·h/mL; in series [2] (male, human, po, 200 mg, Regimen I: 200 mg Liquid Formulation, Fed, single oral dose, geometric mean (CV%)), 926 ng·h/mL. The AUC(0-t) is 1280 ng·h/mL in series [2] (male, human, po, 200 mg, Regimen G: 200 mg Tablet, Fed, single oral dose, geometric mean (CV%), read-out: AUC (0-24)); 1200 ng·h/mL in series [2] (male, human, po, 200 mg, Regimen G: 200 mg Tablet, Fed, single oral dose, geometric mean (CV%), read-out: AUC (0-last)); 1130 ng·h/mL in series [2] (male, human, po, 200 mg, Regimen H: 200 mg Liquid Formulation, Fasted, single oral dose, geometric mean (CV%), read-out: AUC (0-24)); 1080 ng·h/mL in series [2] (male, human, po, 200 mg, Regimen H: 200 mg Liquid Formulation, Fasted, single oral dose, geometric mean (CV%), read-out: AUC (0-last)); 1180 ng·h/mL in series [2] (male, human, po, 200 mg, Regimen I: 200 mg Liquid Formulation, Fed, single oral dose, geometric mean (CV%), read-out: AUC (0-24)); 1120 ng·h/mL in series [2] (male, human, po, 200 mg, Regimen I: 200 mg Liquid Formulation, Fed, single oral dose, geometric mean (CV%), read-out: AUC (0-last)). The Cmax stood at 406 ng/mL in series [2] (male, human, po, 200 mg, Regimen G: 200 mg Tablet, Fed, single oral dose, geometric mean (CV%), read-out: Cmax); 372 ng/mL in series [2] (male, human, po, 200 mg, Regimen H: 200 mg Liquid Formulation, Fasted, single oral dose, geometric mean (CV%), read-out: Cmax); 319 ng/mL in series [2] (male, human, po, 200 mg, Regimen I: 200 mg Liquid Formulation, Fed, single oral dose, geometric mean (CV%), read-out: Cmax). In addition, the “food effect on exposure, fed vs fasted” value in series [2] is recorded as “No notable changes”.

Take `CC(C)NC(=O)COc1cccc(-c2nc(Nc3ccc4[nH]ncc4c3)c3ccccc3n2)c1` [jet-milled belumosudil]: the “PSD of wet dispersion in sterile water for irrigation” value in series [3] is recorded as “poor results with readings that were inconsistent between the measurement runs”.

For `NC(=O)COc1cccc(-c2nc(Nc3ccc4[nH]ncc4c3)c3ccccc3n2)c1` [KD025m1], the Tlag in series [2] (setting [4]) is 1.00 h; in series [2] (setting [6]), 0.00 (0.00-1.00) [n = 17] h; in series [2] (setting [8]), 0.500 (0.00-1.00) [n = 17] h. Moreover, the results for the Tmax in series [2] (setting [4]), in series [2] (setting [6]) and in series [2] (setting [8]) were 2.00 h, 1.00 (0.500-1.50) [n = 17] h and 1.50 (0.500-3.00) [n = 17] h, respectively. The “AUC (0-24)” value in series [2] (setting [5]) is 45.3 (63.9%) [n = 15] ng · h/mL; in series [2] (setting [7]), 34.9 (104.8%) [n = 12] ng · h/mL; in series [2] (setting [9]), 49.4 (83.1%) [n = 17] ng · h/mL. In addition, the “AUC (0-last)” value was 42.7 (50.7%) [n = 15] ng · h/mL in series [2] (setting [5]), 30.3 (70.9%) [n = 12] ng · h/mL in series [2] (setting [7]) and 37.9 (53.2%) [n = 17] ng · h/mL in series [2] (setting [9]). The figures for the Cmax in series [2] (setting [5]), in series [2] (setting [7]) and in series [2] (setting [9]) were 22.3 ng/mL, 19.0 (41.7%) [n = 17] ng/mL and 19.4 (27.6%) [n = 17] ng/mL, respectively. Also, the Lambda-z in series [2] (setting [10]) is 0.24 h⁻¹ and 0.38 h⁻¹; in series [2] (setting [11]), 0.26 h⁻¹ and 0.3 h⁻¹; in series [2] (setting [12]), 0.326 [n = 1] l/h. Besides, the T1/2 in series [2] (setting [10]) is 1.81 h and 2.88 h; in series [2] (setting [11]), 2.28 h and 2.67 h; in series [2] (setting [12]) it was 2.128 [n = 1] h. Further, the “peak (Cmax) and total exposure (AUC), liquid formulation vs tablet” value in series [2] (listed as KD025 ml) was “largely similar to that of the tablet reference”. For the same compound, the “food effect on exposure, fed vs fasted” value in series [2] is listed as “moderate increases in total exposure”. In addition, the “median Tmax” value is 1.5 h in series [2] (single oral 200 mg as liquid formulation (fed)); 2.00 h and 2 h in series [2] (single oral 200 mg as tablet reference, fed, listed as KD025 ml).

As to `OC[C@H]1O[C@H](O[C@]2(CCl)O[C@H](CCl)[C@@H](O)[C@@H]2O)[C@H](O)[C@@H](O)[C@H]1Cl` [Sucralose], the ADI entry in series [1] (set in 2000) is “An ADI of up to 15 mg/kg body weight was set in 2000. In”.

As for `CC(C)NC(=O)COc1cccc(-c2nc(Nc3ccc4[nH]ncc4c3)c3ccccc3n2)c1` [pin-milled API], the “PSD of wet dispersion in sterile water for irrigation” value in series [3] was “reproducibility between replicates”.
